Values of other authors, collected in US10946025B2, “Compounds” (Glaxo Group Limited, priority 2009, dated 2021).

Legend:
neutrophils = details: treatment of neutrophils; Thelen et al. 1994
neutrophil = details: background literature; for superoxide release: neutrophils

SMILES: COC[C@H]1OC(=O)c2coc3c2[C@@]1(C)C1=C(C3=O)[C@@H]2CCC(=O)[C@@]2(C)C[C@H]1OC(C)=O [wortmannin]
- fMLP-induced respiratory burst response (neutrophils): prevents
- neutrophil migration (neutrophil): block
- superoxide release (neutrophil): block

SMILES: O=c1cc(N2CCOCC2)oc2c(-c3ccccc3)cccc12 [LY294002]
- neutrophil migration (neutrophil): block
- superoxide release (neutrophil): block
